Measurements taken from patent US6291530A, “Aryl-substituted acrylamides with Leukotriene B4 (LTB-4) receptor antagonist activity” (Novartis AG, priority 1999, dated 2001).

Assays:
[1] = system: arachidonic acid-induced mouse ear inflammation; assay: Arachidonic acid-induced mouse ear inflammation model; format: in vivo
Protocol: The methodology used is essentially that described by Young et al., J. Invest. Dermatol. 82, 367-371 (1984). Female mice (A/J, Jakson Labs., Bar Harbor, Me.) weighing 20 gm are divided into groups consisting of six mice per treatment group. They are fasted overnight. Arachidonic acid (2 mg in 15 μl acetone) (Sigma, St Louis, Mo.) is applied to the inner surface of the right ear. The left ear received 15 μl of acetone. […] […] Edema is determined by subtracting the weight of the left ear punch from that of the right ear. As the marker for neutrophil infiltration, myeloperoxidase activity is measured as described by Bradley et al., J. Invest. Dermatol., Vol. 78, p. 206 (1982). The right ear punches from the both the vehicle and compound treated groups are used. The percentage of inhibition is calculated by comparing the myeloperoxidase activity of the compound treated groups with those of the vehicle treated group.

LTB-4 receptor = molecular target: T1, LTB-4 receptor (Homo sapiens, UniProt Q15722); assay: LTB-4 receptor binding assay: binding of [H^3]-LTB-4 to intact human neutrophils; conditions: [H^3]-LTB-4, intact human neutrophils
T1 construct: to intact human neutrophils; endogenous in cells; host or cells: intact neutrophils prepared from human venous blood
Protocol: LTB-4 receptor binding is dete mined in the following assay involving receptor binding of [H^3 ]-LTB-4 to intact human neutrophils.
(§1) LTB-4 is purchased as a solution in either ethanol or DMSO (Biomol, Plymouth Meeting, Pa.) and diluted into Hank's balanced Salt Solution (HBSS) before use. For in vitro tests, test compounds are dissolved in DMSO to produce stock solution of 10 mM. Dilutions are made so that the final concentration of DMSO is 0.35%.
Neutrophils are prepared from […] human venous blood. Blood (25 ml) is mixed with HESPAN (15 ml)(DuPont, Wilmington, Del.) and allowed to stand at room temperature for 40 minutes. The supernatant is removed and centrifuged for 10 minutes at 400×g. The resulting pellet is resuspended in phosphate-buffered saline without calcium and magnesium (GIBCO, Grand Islands N.Y.). Thirty-five ml of the resuspended cells is layered over 15 ml of Ficoll-Paque (Sigma, St Louis, Mo.) and then centrifuged for 15 minutes at 420×g. The resulting cell pllet is resuspended in 10 ml of phosphate-buffered saline without calcium and magnesium. Twenty-five ml of deionized water are added to the suspension for 20 seconds followed by the same volume of buffer at twice the normal concentration. The suspension is centrifuged for 5 minutes at 200×g,and the pellet resuspended in Hank's Balanced Salt Solution (HBSS).
Binding of [H^3 ]-LTB-4 to neutrophils is measured as described by Gorman and Lin, Methods Enzymol. 141: 372-378 (1987) and Jackson et al., J. Pharmacol.Exp. Ther., Vol. 262, p. 80 (1992). Intact human ntutrophils (3×106) are added to HBSS containing 0.5 nM [H^3 ]-LTB-4 (specific activity 32 Ci/mmol, DuPont-NEN, Boston, Mass.) and compound (final volume 0.5 ml). After incubating for 20 minutes at 0° C., the bound radioactivity is collected on Whatman GF/C filters by vacuum filtration using a Brandel harvester. The filters are washed twice with ice cold HBSS. Filters are counted using Formula-989 scintillation cocktail (DuPont-NEN, Boston, Mass.). Non-specific binding is determined in the presence of 300 nM LTB-4 (Biomol Res. Labs, Plymouth Meeting, Pa.).

[2] = system: LTB-4-induced intracellular calcium rise in human neutrophils; assay: Inhibition of the LTB-4-induced intracellular calcium rise in human neutrophils; format: cell-based; conditions: Neutrophil, read-out: Concentration at which calcium rise is inhibited
Protocol: as §1
Inhibition of LTB-4 is determined by measuring the inhibition of the LTB-4-induced intracellular calcium rise in human neutrophils. Increases in intracellular Ca++ are measured as described by Seligmann et al., Agents and Actions, Vol. 21, p. 375 (1987). Neutrophils are purified from citrated human venous blood by sedimentation in HESPAN as described above. Neutrophils are isolated from the resulting pellet by centrifugal elutriation (Berkow et al., J. Lab. Clin. Med., Vol. 104, p. 698, 1984). Except were noted the neutrophils are incubated with acetoxymetbyl ester of Fura-2 (0.2 μM)(Molecular Probes Inc.) for 30 minutes at 37° C. in HEPES-buffered Hank's solution containing Ca++ and Mg++. The Fura-2 loaded cells are washed and stored on ice at a concentration of 2×10^6 cells/ml in 10 mM HEPES-buffered HBSS without Ca++ and Mg++. Fifteen minutes before assay, 1.5 ml of the cell suspension is mixed with 10 μl of 0.15 M Ca++ and 0.15 M Mg++ by stirring at 37° C. Compounds are added 40 seconds before the addition of 1 nM LTB-4. The change in fluorescence was followed using a DMX 1000 spectrofluorometer (SLM-Aminco Instruments, Urbana Ill.).

[3] = 3 mg/Kg p.o., 1.5 hours post administration
[4] = 10 mg/Kg p.o., 18 hours post administration

T1 sequence (Q15722 whole entry): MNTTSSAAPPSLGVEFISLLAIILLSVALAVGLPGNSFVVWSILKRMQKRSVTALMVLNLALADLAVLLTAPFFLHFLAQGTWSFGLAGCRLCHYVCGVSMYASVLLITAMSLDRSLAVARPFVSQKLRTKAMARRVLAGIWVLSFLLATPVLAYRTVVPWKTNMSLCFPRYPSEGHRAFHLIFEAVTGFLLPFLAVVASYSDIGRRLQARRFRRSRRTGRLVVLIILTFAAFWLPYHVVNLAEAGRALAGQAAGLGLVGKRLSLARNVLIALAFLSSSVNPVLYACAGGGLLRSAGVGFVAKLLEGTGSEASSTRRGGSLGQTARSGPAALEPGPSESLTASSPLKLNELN

SMILES	Inhibition of edema [1, 3]	Inhibition of myeloperoxidase activity [1, 3]	Inhibition of edema [1, 4]	Inhibition of myeloperoxidase activity [1, 4]	IC50 (LTB-4 receptor) [nM]	IC50 [2] [nM]
CCN(CC)C(=O)/C=C(\C)c1ccc(OCc2c(F)cccc2F)c(OCC(=O)O)c1 [Example 2y, (E)-[5-(2-Diethylcarbamoyl-1-methylvinyl)-2-(2,6-difluorobenzyloxy)-phenoxy]-acetic acid]	inhibit	inhibit	inhibit	inhibit	~48	~18
CCN(CC)C(=O)/C=C(\C)c1ccc(OCc2c(F)cccc2F)c(CC(=O)O)c1 [Example 8a, (E)-[5-(2-diethylcarbamoyl-1-methyl-vinyl)-2-(2,6-difluorobenzyloxy)-phenyl]-acetic acid]	inhibit	inhibit	inhibit	inhibit	~87	~22
CCN(CC)C(=O)/C=C(\C)c1ccc(OC(C)c2ccccc2)c(CC(=O)O)c1 (stereo not drawn) [Example 8b, (E)-[5(2-diethylcarbamoyl-1-methylvinyl)-2-(1-phenyl-ethoxy)-phenyl]-acetic acid]	inhibit	inhibit	inhibit	inhibit	~74	~8
